From PubChem BioAssay AID200 (DTP/NCI, 2004)
“And” between values parts separate entries of the source, which are not always exact repeats. Equal values may be shown once. Toxic doses and inconclusive results are not listed. Rule for the calls: active = survival T/C of 150% or more; inactive = T/C below 125% in these data.

System: B6C3F1 mice, B16 melanoma ip, median survival T/C
Assay: NCI In Vivo Anticancer Drug Screen. Data for tumor model B16 Melanoma (intraperitoneal) in B6C3F1 mice
Conditions: endpoint: median survival time, higher = longer survival
Outline: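 Transplantable tumor in mice; treated vs vehicle control groups; survival or tumor size measured; value = T/C ratio.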

[1] = dose: 12.5 mg/kg/injection, schedule: Q01DX009 (ip), vehicle: saline with Tween-80
[2] = dose: 25.0 mg/kg/injection, schedule: Q01DX009 (ip), vehicle: saline with Tween-80
[3] = dose: 50.0 mg/kg/injection, schedule: Q01DX009 (ip), vehicle: saline with Tween-80
[4] = dose: 100.0 mg/kg/injection, schedule: Q01DX009 (ip), vehicle: saline with Tween-80
[5] = dose: 200.0 mg/kg/injection, schedule: Q01DX009 (ip), vehicle: saline with Tween-80
[6] = dose: 6.25 mg/kg/injection, schedule: Q01DX009 (ip), vehicle: saline with Tween-80
[7] = dose: 3.12 mg/kg/injection, schedule: Q01DX009 (ip), vehicle: suspension in saline
[8] = dose: 3.13 mg/kg/injection, schedule: Q01DX009 (ip), vehicle: saline with Tween-80

Measured: T/C

CC[C@@]1(O)C[C@H](OC2CC(N(C)C)C(OC3CC(O)C(OC4CCC(=O)C(C)O4)C(C)O3)C(C)O2)c2c(cc3c(c2O)C(=O)c2c(O)ccc(O)c2C3=O)[C@H]1C(=O)OC (stereo partly drawn)
active: dose: 1.0 mg/kg/injection, schedule: Q01DX009 (ip), vehicle: water 156 % of control
inactive: dose: 0.25 mg/kg/injection, schedule: Q01DX009 (ip), vehicle: water 100 % of control | dose: 0.5 mg/kg/injection, schedule: Q01DX009 (ip), vehicle: water 120 % of control

CCCCCCCCCCCCCCCCS(=O)CC(O)COC(=O)c1ccc(C(=O)OCC(O)CS(=O)CCCCCCCCCCCCCCCC)cc1 (stereo not drawn)
inactive: dose: 12.5 mg/kg/injection, schedule: Q01DX009 (ip), vehicle: saline + alcohol 100 % of control | dose: 25.0 mg/kg/injection, schedule: Q01DX009 (ip), vehicle: saline + alcohol 86 % of control | dose: 50.0 mg/kg/injection, schedule: Q01DX009 (ip), vehicle: saline + alcohol 87 % of control

CCCCCC[Se][Se]CCCCCC
inactive: dose: 1.56 mg/kg/injection, schedule: Q01DX009 (ip), vehicle: Klucel (hydroxypropylcellulose) (HPC) 97 % of control | dose: 3.12 mg/kg/injection, schedule: Q01DX009 (ip), vehicle: Klucel (hydroxypropylcellulose) (HPC) 106 % of control | dose: 6.25 mg/kg/injection, schedule: Q01DX009 (ip), vehicle: Klucel (hydroxypropylcellulose) (HPC) 95 % of control

NCCSC(C[N+](=O)[O-])c1ccccc1Cl (stereo not drawn)
inactive: dose: 6.25 mg/kg/injection, schedule: Q01DX009 (ip), vehicle: saline 103 % of control | dose: 12.5 mg/kg/injection, schedule: Q01DX009 (ip), vehicle: saline 114 % of control | dose: 25.0 mg/kg/injection, schedule: Q01DX009 (ip), vehicle: saline 93 % of control

NC(Cc1ccc(O)cc1)C(=O)O (stereo not drawn)
inactive: [1] 102 % of control | [2] 113 % of control | dose: 50.0 mg/kg/injection, schedule: Q01DX009 (ip), vehicle: Klucel (hydroxypropylcellulose) (HPC) 120 % of control | [3] 113 % of control | dose: 100.0 mg/kg/injection, schedule: Q01DX009 (ip), vehicle: Klucel (hydroxypropylcellulose) (HPC) 99 % of control | [4] 103 % of control | dose: 200.0 mg/kg/injection, schedule: Q01DX009 (ip), vehicle: Klucel (hydroxypropylcellulose) (HPC) 109 % of control | [5] 98 % of control | dose: 400.0 mg/kg/injection, schedule: Q01DX009 (ip), vehicle: Klucel (hydroxypropylcellulose) (HPC) 96 % of control | dose: 400.0 mg/kg/injection, schedule: Q01DX009 (ip), vehicle: saline with Tween-80 103 % of control

Cc1ccc(S(=O)(=O)NC(=S)S)cc1
inactive: [1] 92 % of control | [2] 92 % of control | [3] 95 % of control | [4] 97 % of control | [5] 94 % of control

COc1cccc2c1C(=O)c1c(O)c3c(c(O)c1C2=O)C[C@@](O)(C(=O)CO)C[C@@H]3OC1CC(NC(=O)C(N)CC(C)C)C(O)C(C)O1 (stereo partly drawn)
active: dose: 6.25 mg/kg/injection, schedule: Q01DX001 (ip), vehicle: saline 192 % of control | dose: 12.5 mg/kg/injection, schedule: Q01DX001 (ip), vehicle: saline 192 % of control | dose: 25.0 mg/kg/injection, schedule: Q01DX001 (ip), vehicle: saline 269 % of control | dose: 50.0 mg/kg/injection, schedule: Q01DX001 (ip), vehicle: saline 183 % of control

N#CC(=C1C=CC(=NO)C=C1)c1ccc(Cl)cc1
inactive: [6] 101 % of control | [1] 105 % of control | [2] 99 % of control | [3] 99 % of control | [4] 98 % of control | [5] 97 % of control

CC(=O)O[C@@H]1CO[C@H]2O[C@H]3[C@@H](C(C=O)=C[C@H](O)[C@@H]4C5=C(C(C)C)CC[C@]5(C)CC[C@@]34C)[C@@]2(O)C1=O
inactive: dose: 0.75 mg/kg/injection, schedule: Q01DX009 (ip), vehicle: Klucel (hydroxypropylcellulose) (HPC) 89 % of control | dose: 1.5 mg/kg/injection, schedule: Q01DX009 (ip), vehicle: Klucel (hydroxypropylcellulose) (HPC) 94 % of control | dose: 3.0 mg/kg/injection, schedule: Q01DX009 (ip), vehicle: Klucel (hydroxypropylcellulose) (HPC) 88 % of control

[Cl][Pt+2][Cl].[NH-]CC1(C[NH-])CCC1
active: dose: 1.56 mg/kg/injection, schedule: Q01DX009 (ip), vehicle: suspension in saline 151 % of control | [7] 167 % of control
inactive: dose: 0.19 mg/kg/injection, schedule: Q01DX009 (ip), vehicle: suspension in saline 107 % of control | dose: 0.39 mg/kg/injection, schedule: Q01DX009 (ip), vehicle: suspension in saline 114 % of control | dose: 0.78 mg/kg/injection, schedule: Q01DX009 (ip), vehicle: suspension in saline 123 % of control

COc1cccc2c1C(=O)c1c(O)c3c(c(O)c1C2=O)C[C@@](O)(C(C)=O)C[C@@H]3OC1CC(N(CCO)Cc2ccccc2)C(O)C(C)O1 (stereo partly drawn)
inactive: dose: 12.5 mg/kg/injection, schedule: Q01DX001 (ip), vehicle: water 120 % of control | dose: 25.0 mg/kg/injection, schedule: Q01DX001 (ip), vehicle: water 116 % of control

COc1ccc(O)cc1
inactive: [1] 112 % of control | dose: 18.0 mg/kg/injection, schedule: Q01DX009 (ip), vehicle: saline with Tween-80 98 % of control | [2] 101 % of control | dose: 30.0 mg/kg/injection, schedule: Q01DX009 (ip), vehicle: saline with Tween-80 106 % of control | [3] 102 % of control | dose: 89.0 mg/kg/injection, schedule: Q01DX009 (ip), vehicle: saline with Tween-80 106 % of control | [4] 104 % of control | dose: 189.0 mg/kg/injection, schedule: Q01DX009 (ip), vehicle: saline with Tween-80 101 % of control | [5] 105 % of control

Cn1cnc([N+](=O)[O-])c1Sc1nc(N)nc2c1ncn2C1OC(CO)C(O)C1O (stereo not drawn)
inactive: [7] 116 % of control | [8] 111 % of control | [6] 97 % of control | dose: 6.25 mg/kg/injection, schedule: Q01DX009 (ip), vehicle: suspension in saline 117 % of control | [1] 94 % of control | dose: 12.5 mg/kg/injection, schedule: Q01DX009 (ip), vehicle: suspension in saline 93 % of control

O=[n+]1c2ccccc2n([O-])c2cc(Cl)ccc21
inactive: [1] 111 % of control | [2] 109 % of control | [3] 116 % of control | [4] 124 % of control

Cc1c(O)ccc(=O)n1O
inactive: dose: 16.0 mg/kg/injection, schedule: Q01DX009 (ip), vehicle: saline with Tween-80 101 % of control | dose: 32.0 mg/kg/injection, schedule: Q01DX009 (ip), vehicle: saline with Tween-80 98 % of control | dose: 64.0 mg/kg/injection, schedule: Q01DX009 (ip), vehicle: saline with Tween-80 101 % of control | dose: 128.0 mg/kg/injection, schedule: Q01DX009 (ip), vehicle: saline with Tween-80 104 % of control

CN(C)CC(=O)c1ccc(O)c(O)c1
inactive: dose: 100.0 mg/kg/injection, schedule: Q01DX009 (ip), vehicle: saline 104 % of control | dose: 200.0 mg/kg/injection, schedule: Q01DX009 (ip), vehicle: saline 114 % of control and 102 % of control | dose: 400.0 mg/kg/injection, schedule: Q01DX009 (ip), vehicle: saline 122 % of control and 108 % of control

O=[N+]([O-])c1ccc(-n2[nH]nnc2=S)cc1
inactive: [1] 100 % of control and 101 % of control | [2] 101 % of control and 103 % of control | [3] 95 % of control | [4] 93 % of control and 100 % of control | [5] 88 % of control and 92 % of control

CCOc1ccc2c(c1)/C(=C\C=C\C1CC(C)C3CC(OCC)CCC3N1CC)CC(C)N2CC (stereo not drawn)
inactive: dose: 1.25 mg/kg/injection, schedule: Q01DX009 (ip), vehicle: saline + alcohol 97 % of control | dose: 2.5 mg/kg/injection, schedule: Q01DX009 (ip), vehicle: saline + alcohol 100 % of control | dose: 5.0 mg/kg/injection, schedule: Q01DX009 (ip), vehicle: saline + alcohol 113 % of control

COc1cc2cc(c1Cl)N1CCC(C)(O)C(=O)NC(C)C(=O)OC(CC1=O)C1(C)OC1C(C)C1CC(O)(NC(=O)O1)C(OC)/C=C\C=C(\C)C2OC (stereo not drawn)
active: dose: 8.0 micrograms/kg/injection, schedule: Q01DX009 (ip), vehicle: distilled water + alcohol 160 % of control | dose: 16.0 micrograms/kg/injection, schedule: Q01DX009 (ip), vehicle: distilled water + alcohol 162 % of control | dose: 32.0 micrograms/kg/injection, schedule: Q01DX009 (ip), vehicle: distilled water + alcohol 178 % of control

COc1ccc(C(=S)N2CCN(c3ccccc3)CC2)cc1
inactive: [8] 98 % of control | [6] 91 % of control | [1] 93 % of control | [2] 101 % of control
